Laboratory results from patent US20170332666A1, “APPLICATION OF P-METHYL BENZOIC ACID OR SALTS THEREOF AS ADDITIVES FOR ANIMAL FEED” (priority 2015, published 2017).
Where “and” joins values, the source holds several entries; their conditions need not be identical. Equal values may be shown once.

Assays:
weaned pigs = assay: Growth promotion test of weaned pigs with additives in creep feed; format: in vivo, pig (Duroc×Landrace×Large White piglets); conditions: for Average daily weight gain / Diarrhea rate / Feed conversion ratio: 10 days
Excerpt: 140 weaned Duroc×Landrace×Large White piglets aged 28 days with similar body weight and further having an average body weight of 7.61 kg were divided into 14 groups, each with 10 pigs. After adding different concentrations of p-methyl benzoic acid or its calcium, sodium, potassium or zinc salt prepared by the embodiments disclosed herein into the conventional creep feed (excluding acidifying agent) of each group, the pigs were free feeding and drinking during the test period of 10 days, then to collect statistics of the weight gain and the feed conversion ratio as well as the diarrhea rate of test pig in each test group.

grass carps = assay: Growth promotion test in grass carps with additives in feed; format: in vivo, grass carp; conditions: for Feed conversion ratio (FCR) / Final weight / Survival rate SR / Weight gain rate: 3000 ppm in feed, 8 weeks
Method: The test was performed on an aquaculture farm of Guangzhou Insighter Biotechnology CO., LTD, and the test fish is grass carp. Healthy and lively grass carps with the same species and sizes were fed in a large cage for 4 weeks, thereafter used for formal test, and the test system is a small floating cage. The small floating cage and temporary cages were placed in a 3500 square meter pond of the test field. Water depth of the pond was close to 1.5m, and the pond water is fully aerated. When testing, 160 grass carps starved for 1 day were randomly divided into 4 groups, each group with 4 replicates, and each replicate with 10 fish. After the whole weighing, the samples were randomly placed in 16 cages and fed with different test diets. The test diets were self-formulated in accordance with Table 5, and the basic diets of different test groups were adding different growth promoters respectively. The test adopted artificial feeding with food restriction, and the feed intake was adjusted once a week, the feeding levels of two groups were completely consistent (metered by the initial weight), the fish in each group is fed two times in one day (7:30 and 15:00). The test lasted for 8 weeks.

broilers = assay: Growth promotion test of broilers with acidifying agents in complete formula feed; format: in vivo, broilers (chicken); conditions: for Effect on daily gain (in words) / Effect on feed conversion ratio (in words): 2000 ppm; for Average daily weight gain / Feed conversion ratio: 2000 ppm in complete formula feed, 21 days
Method: 300 broilers (female seedlings) aged 1 day were divided into 6 groups in accordance with Table 6, and each group with 50 broilers. Acidifying agent with different type or concentration was added to the complete formula feed for chickens without any acidifying agents in each group, the broilers were free feeding and drinking during the test period of 21 days and then to collect statistics of the weight gain and the feed conversion ratio of test broiler in each test group.

meat-type ducks = assay: Feeding test of meat-type ducks with additives in basic diet; format: in vivo, Cherry Valley ducks; conditions: for Average daily weight gain / Average feed conversion ratio / Survival rate: 2000 ppm in basic diet, 30 days
Excerpt: 300 Cherry Valley ducks aged 1 day were divided into 6 groups with 50 ducks per group. After adding different concentrations of p-methyl benzoic acid or benzoic acid into the same basic diet (without antibiotics) of each group, the Cherry Valley ducks were free feeding and drinking, and continued feeding for 30 days, then to collect statistics of the production performance and the survival rate of test ducks, the test grouping and metered concentrations are shown in Table 3, and the results of the production performance are shown in Table 4.

Row | SMILES | Effect on diarrhea rate of test pigs (in words) (weaned pigs; 2000 ppm) | Improvement of production performance (in words) (weaned pigs; 2000 ppm) | Average daily weight gain (weaned pigs; 2000 ppm in creep feed) | Diarrhea rate (weaned pigs; 2000 ppm in creep feed) | Feed conversion ratio (weaned pigs; 2000 ppm in creep feed) | Feed conversion ratio (FCR) (grass carps) | Final weight (grass carps) [g] | Survival rate SR (grass carps) [%] | Weight gain rate (grass carps) [%] | Effect on daily gain (in words) (broilers) | Effect on feed conversion ratio (in words) (broilers) | Average daily weight gain (broilers) [g] | Feed conversion ratio (broilers) | Survival rate (meat-type ducks) [%] | Effect on diarrhea rate of test pigs (in words) (weaned pigs; 10000 ppm to 20000 ppm) | Improvement of production performance (in words) (weaned pigs; 10000 ppm to 20000 ppm) | also measured
1 | O=C(O)CC(O)(CC(=O)O)C(=O)O [citric acid, reference compound] | no such effects | no such effects | 181.3 g and 180.4 g | 31.0% and 26.0% | 1.67 and 1.68 | 1.47 | 582 | 100 | 147 | no such effects | no such effects | 19.8 | 1.88 | – | – | – | –
2 | O=CO [formic acid, reference compound] | – | – | 173.4 g | 25.0% | 1.65 | – | – | – | – | – | – | – | – | 93 | – | – | Average daily weight gain (meat-type ducks): 58.6; Average feed conversion ratio (meat-type ducks): 2.11
3 | O=C(O)c1ccccc1 [benzoic acid] | – | – | 192.3 g and 193.5 g | 22.0% and 23.0% | 1.66 and 1.65 | 1.46 | 585 | 100 | 147 | – | – | – | – | 92 | – | – | Rate of anti-diarrhea as compared to phosphoric acid or citric acid (in words) (weaned pigs; equal concentration (2000 ppm)): increased slightly; Average daily weight gain (meat-type ducks): 59.7; Average feed conversion ratio (meat-type ducks): 2.10
4 | Cc1ccc(C(=O)[O-])cc1.[Na+] [sodium p-methyl benzoate] | – | – | 203.7 g | 17.0% | 1.55 | – | – | – | – | significantly increase the daily gain | improve the feed conversion ratio | 24.3 | 1.79 | – | significantly reduce the diarrhea rate | significant dose effect | –
5 | Cc1ccc(C(=O)[O-])cc1.[K+] [potassium p-methyl benzoate] | – | – | 205.8 g | 15.0% | 1.58 | – | – | – | – | – | – | – | – | – | significantly reduce the diarrhea rate | significant dose effect | –
6 | Cc1ccc(C(=O)[O-])cc1.Cc1ccc(C(=O)[O-])cc1.[Ca+2] [calcium p-methyl benzoate] | significantly reduce the diarrhea rate | significant dose effect | 203.6 g | 12.0% | 1.54 | 1.40 | 612 | 100 | 157 | – | – | – | – | – | significantly reduce the diarrhea rate | significant dose effect | Growth promotion versus blank control group (in words) (grass carps): obvious effects on growth promotion
7 | O=P(O)(O)O [phosphoric acid, reference compound] | no such effects | no such effects | 175.3 g | 27.0% | 1.66 | – | – | – | – | – | – | – | – | – | – | – | –
8 | C/C=C/C=C/C(=O)O [sorbic acid] | – | – | – | – | – | – | – | – | – | no such effects | no such effects | 19.9 | 1.89 | – | – | – | –
9 | Cc1ccc(C(=O)O)cc1 [p-methyl benzoic acid] | significantly reduce the diarrhea rate | significant dose effect | – | – | – | – | – | – | – | – | – | 24.5 | 1.76 | 100 | significantly reduce the diarrhea rate | significant dose effect | Average daily weight gain (weaned pigs; 10000 ppm in creep feed): 215.8 g; Diarrhea rate (weaned pigs; 10000 ppm in creep feed): 11.0%; Feed conversion ratio (weaned pigs; 10000 ppm in creep feed): 1.51; Average daily weight gain (weaned pigs; 20000 ppm in creep feed): 221.4 g; Diarrhea rate (weaned pigs; 20000 ppm in creep feed): 9.0%; Feed conversion ratio (weaned pigs; 20000 ppm in creep feed): 1.47; Production performance and survival rate (in words) (meat-type ducks): greatly improved
10 | Cc1ccc(C(=O)[O-])cc1.Cc1ccc(C(=O)[O-])cc1.[Zn+2] [zinc p-methyl benzoate] | – | – | 201.3 g | 15.0% | 1.60 | – | – | – | – | – | – | – | – | – | – | – | –
